Where two headings read alike, the source gives them in different places.
Tests used:
HOS = assay: Cytotoxicity test (MTT), HOS; format: cell-based; details: 10^−6M, 72 hrs, in comparison with the control group
Protocol: (§1) The cytotoxic effect of the benzamidine derivative of the present invention was evaluated by carrying out the experiment described below.
(§2) The test substance was diluted in an appropriate solvent at a 10^−2 M concentration. This substance was diluted in an appropriate culture medium for the cells used in the cytotoxicity test to a concentration of […], and loaded into a 96-well plate in 100 μl per well. The cell lines to be used in the cytotoxicity test were plated on a 96-well plate in a dose of 1.0×10^4 cells/1OO μl per well and cultured for 72 hrs. 25 μl of MTT [3-(4,5-dimethyl-2-thiazolyl)-2,5-diphenyl-2H-tetrazolium bromide] dissolved in PBS (2 mg/mL) were added before 4 hrs of the end of culture. After completion of the reaction, the plates were centrifuged, the medium was discarded and 100 μl of DMSO was added to dissolve formazan. Finally, the absorbance of the developed plates was measured at 540 nm. The survival rates of the cells were expressed as % concentration values in comparison with the control group.

MC3T3 = assay: Cytotoxicity test (MTT), MC3T3; format: cell-based; details: 10^−6M, 72 hrs, in comparison with the control group
Protocol: as §1, §2

calvaria = assay: Cytotoxicity test (MTT), calvaria; format: cell-based; details: 10^−6M, 72 hrs, in comparison with the control group
Protocol: as §1, §2

[1] = system: ovariectomized white mouse; assay: Therapeutic effect in mouse model of osteoporosis induced by ovariectomy, trabecular bone volume of the femur by histomorphometry; format: in vivo; details: read-out: Changes in trabecular bone volume (% relative to vehicle control)
Protocol: The therapeutic effect of each benzamidine derivate of the present invention was evaluated on the ovariectomized white mouse. The substances of Examples 18, 19 and 72 were administered from 4 weeks after operation for 4 weeks and the substances of Examples 27, 33, 36, 47, 53 and 59 were administered from 3 days after operation for 29 days. Thereafter, the changes in the trabecular bone volume (TBV) of the femur were observed via histomorphometry.
Female ddY mice (6-week-old, SLC, Japan) were used after acclimatization for 7 days. Animals to be test were allocated 5 per a plastic cage for mice, and raised in a temperature (20 to 25[…]) and humidity (30 to 35%) controlled room. Feed and water were supplied free to access.
Salts of the benzamidine derivative of the present invention (methanesulfonic acid or HCl) were dissolved or suspended in sterilized, distilled water or 5% DMSO, and administered at a dose of 10 ml per body weight (kg) in the form of a solution. The substances of Examples 18, 19 and 72 were administered from 4 weeks after operation for 4 weeks, and the substances of Examples 27, 33, 36, 47, 53 and 59 were administered from 3 days after operation for 29 days each at 50 mg/kg/day.
After all animals anesthetize using ketamine hydrochloride and xylazine hydrochloride, bilateral ovaries were removed in order to induce estrogen-deficient osteoporosis. After ovariectomy, the […] were closed by routine methods.
The left femur was separated at a final sacrifice day, and fixed in 10% neutral formalin, then decalcified in a decalcifying solution (solution composed of 2.44% formic acid, and 0.5 N sodium hydroxide). The decalcifying solution was exchanges once a day for 5 days. After completion of the decalcification, the femur was embedded in paraffin, sectioned (3 to 4 μM), and stained with a hematoxylin-eosin stain. Observation was made using optical micrography.
The trabecular bone volume was calculated using automated image analysis (analysis Image Processing; SIS, Germany) in the femur using a femur histological specimen prepared in the above manner. The trabecular bone volume was calculated as percentage (%) levels.
All the numeral values were determined and compared to that of the vehicle control used in each experiment, using the calculation by the following Equation 1. Change(%)=[(trabecular bone volume of a−trabecular bone volume of b)/trabecular bone volume of b]×100 [Equation 1]
a: Experiment group, b: Vehicle group

[2] = system: osteoclast differentiation; assay: Inhibitory effect on osteoclast differentiation, co-culture of bone marrow cells and osteoblast, TRAP staining; format: cell-based, mouse; details: Mus musculus, Osteoclast, 168 h, read-out: inhibitory effect on osteoclast differentiation(%)
Procedure, shortened: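 Mouse ddY bone marrow cells (25,000/cm^2) were co-cultured with neonatal ICR calvarial osteoblasts (10,000/cm^2) and compound for 7 days, with 10^−7 M dexamethasone and 10^−8 M vitamin D3, refreshed every 2–3 days. TRAP-positive cells with ≥3 nuclei were counted and expressed as % inhibition versus negative controls.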

[3] = 672 h, ovariectomized ddY mice, femur, 50 mg/kg/day, administered from 4 weeks after operation for 4 weeks
[4] = 1 μm, 7 days co-culture, TRAP-positive osteoclasts with 3 or more nuclei, relative to negative controls
[5] = 696 h, ovariectomized ddY mice, femur, 50 mg/kg/day, administered from 3 days after operation for 29 days

| Structure (SMILES) | inhibition at 1 µM [2] [%] | inhibition at 1 µM [2, 4] [%] | change in vivo at 50 mg/kg/day [1, 5] [%] | further results |
| --- | --- | --- | --- | --- |
| Cc1nc(-c2ccc(OCCCCCOc3ccc(C(=N)NO)cc3)cc2)c(CCN2CCOCC2)s1 [Example 18, N-hydroxy-4-(5-{4-[2-methyl-5-(2-morpholin-4-yl-ethyl)-thiazol-4-yl]-phenoxy}-pentyloxy)-benzamidine] | 100 | – | – | survival rates of the cells (HOS): 99.7%; survival rates of the cells (MC3T3): 94.4%; survival rates of the cells (calvaria): 97.3%; change in vivo at 50 mg/kg/day ([1]; 672 h): 139% |
| Cc1nc(-c2ccc(OCCCCCOc3ccc(C(=N)NO)cc3)cc2)c(CCN2CCN(C)CC2)s1 [Example 19, N-hydroxy-4-[5-(4-{2-methyl-5-[2-(4-methyl-piperazin-1-yl)-ethyl]-thiazol-4-yl}-phenoxy)-pentyloxy]-benzamidine] | – | 100 | – | change in vivo at 50 mg/kg/day [1, 3]: 2.99% |
| CC(C)c1nc(-c2ccc(OCCCCCOc3ccc(C(=N)NO)cc3)cc2)c(CCN2CCOCC2)s1 [Example 27, N-hydroxy-4-(5-{4-[2-isopropyl-5-(2-morpholin-4-yl-ethyl)-thiazol-4-yl]-phenoxy}-pentyloxy)-benzamidine] | – | 81 | 23.6 | – |
| N=C(NO)c1ccc(OCCCCCOc2ccc(-c3nc(C4CCCCC4)sc3CCN3CCOCC3)cc2)cc1 [Example 33, N-hydroxy-4-(5-{4-[2-cyclohexyl-5-(2-morpholin-4-yl-ethyl)-thiazol-4-yl]-phenoxy}-pentyloxy)-benzamidine] | 92 | – | – | change in vivo at 50 mg/kg/day ([1]; 696 h): 26.3% |
| N=C(NO)c1ccc(OCCCCCOc2ccc(-c3nc(C4CCCCC4)sc3CCN3CCSCC3)cc2)cc1 [Example 36, N-hydroxy-4-(5-{4-[2-cyclohexyl-5-(2-thiomorpholin-4-yl-ethyl)-thiazol-4-yl]-phenoxy}-pentyloxy)-benzamidine] | 100 | – | – | survival rates of the cells (HOS): 81.4%; survival rates of the cells (MC3T3): 97.6%; survival rates of the cells (calvaria): 89.1%; change in vivo at 50 mg/kg/day ([1]; 696 h): 26.6% |
| CNc1nc(-c2ccc(OCCCCCOc3ccc(C(=N)NO)cc3)cc2)c(CCN2CCOCC2)s1 [Example 47, N-hydroxy-4-(5-{4-[2-methylamino-5-(2-morpholin-4-yl-ethyl)-thiazol-4-yl]-phenoxy}-pentyloxy)-benzamidine] | – | 89.6 | 5.77 | – |
| CN(C)c1nc(-c2ccc(OCCCCCOc3ccc(C(=N)NO)cc3)cc2)c(CCN2CCOCC2)s1 [Example 53, N-hydroxy-4-(5-{4-[2-dimethylamino-5-(2-morpholin-4-yl-ethyl)-thiazol-4-yl]-phenoxy}-pentyloxy)-benzamidine] | – | 99.3 | 25.6 | – |
| N=C(NO)c1ccc(OCCCCCOc2ccc(-c3nc(N4CCOCC4)sc3CCN3CCOCC3)cc2)cc1 [Example 59, N-hydroxy-4-(5-{4-[2-morpholin-4-yl-5-(2-morpholin-4-yl-ethyl)-thiazol-4-yl]-phenoxy}-pentyloxy)-benzamidine] | – | 58 | 5.66 | – |
| CNC(=O)c1sc(N)nc1-c1ccc(OCCCCCOc2ccc(C(=N)NO)cc2)cc1 [Example 72, N-hydroxy-4-{5-[4-(2-amino-5-methylcarbamoyl-thiazol-4-yl)-phenoxy]-pentyloxy}-benzamidine] | – | 97.6 | – | change in vivo at 50 mg/kg/day [1, 3]: 95.6% |
